Laboratory results from patent EP0727938B1, “DEVICE AND METHOD FOR PHOTOACTIVATION” (Cerus Corporation, priority 1993, dated 1995).

What was measured:
[1] = tested on: human platelets; assay: Platelet activation: GMP140 expression measured with CD62 antibody by flow cytometry; type: cell-based; conditions: for Activation, PMA Activated, Day 3: storage Day 3, PMA 10-^7 M; for Activation, PMA Activated, Day 5: storage Day 5, PMA 10-^7 M
From the text: When platelets become activated, an alpha granule membrane glycoprotein called GMP140 becomes exposed on the platelet surface. Less than (5%) of fresh, normal unstimulated platelets express detectable GMP 140 levels by flow cytometry. See generally M.J. Metzelaar, Studies on the Expression of Activation-Markers on Human Platelets (Thesis 1991).
To measure GMP140, a small aliquot of platelet rich plasma is placed in HEPES buffer containing a GMP140-binding antibody or control mouse IgG. CD62 is a commercially available monoclonal antibody which binds to GMP 140 (available from Sanbio, Uden, the Netherlands; Caltag Labs, So. San Francisco, CA, and Becton Dickinson, Mountain View, CA). After a fifteen minute incubation, Goat Anti-Mouse IgG conjugated to FITC is added to the tube in saturating amounts. Finally, the cells are diluted in isotonic saline, fixed with paraformaldehyde and analyzed on a FACSCAN™ (Becton Dickinson, Mountain View, CA). The positive control is made by adding Phorbol Myristate Acetate (PMA) to the test system at a final concentration of 10-^7 M.
In this example, CD62 was employed to measure the impact, if any, of irradiation alone on platelet activation. The antibody was stored in small aliquots (0.01 mg/ml) at -40°C prior to use. A mouse IgG control (0.05 mg/ml) (Becton Dickinson, Mountain View, CA #9040) 5X concentrated was employed. At time of use, this was diluted 1:5 in HEPES buffer. The secondary antibody was goat Anti-Mouse IgG conjugated to FITC (TAGO, Burlingame, CA #3506). This was stored in small aliquots at -20°C. Phorbol Myristate Acetate (PMA) (Sigma, St. Louis, MO) was stored at -40°C. At time of use, this was dissolved in DMSO (working concentration was 1.62 X 10^-5 M).
16% Paraformaldehyde (PFA) (Sigma, St. Louis, MO) was prepared by adding 16 grams paraformaldehyde to 100 ml de-ionized water. This was heated to 70°C, whereupon 3 M NaOH was added dropwise until the solution was clear. The solution was cooled and the pH was adjusted to 7.4 with 1 N HCl. This was filtered and stored. A commercially available isotonic buffer was used: Hematall Isotonic Diluent (Fisher # CS 606-20).
Following irradiation, the platelets were stored for 5 days. At specific time points, aliquots were taken and processed.
Processing involved adding an aliquot (e.g. 5 microliters) of platelet concentrate to each microcentrifuge tube containing the antibody and appropriate reagents and this was mixed very gently by vortex. The samples were incubated for 15 minutes at room temperature.
The Goat anti-Mouse IgG-FITC (diluted 1:10 in HEPES buffer) was added (5 microliters) to each tube and the solution was mixed by gentle vortex. The samples were incubated for an additional 15 minutes at room temperature.
Isoton II was added (1 ml) to each tube and mixed gently with a polypropylene disposable pipette. 8% PFA in HEPES (150 microliters) was added to each diluted sample to final 1%. The platelets were analyzed on the FACSCAN™.
Shorter Irradiation Times.

[2] = tested on: viruses; conditions: 300 ug/ml of 8-MOP, one hour or more of irradiation with ultraviolet light; cited from earlier work
[3] = non activated 8-MOP; cited from earlier work
[4] = Photochemical breakdown measured by reverse phase HPLC; type: physicochemical; conditions: Figure 7
[5] = tested on: single stranded 5S ribosomal RNA; conditions: irradiation at 4°C compared to 20°C; cited from earlier work

For `COc1c2occc2cc2ccc(=O)oc12` [8-MOP, 8-methoxypsoralen], the “damage to platelets after irradiation in the presence of psoralen” value ([1]; 10 ug/ml 8-MOP, five minutes UVA, 25°C, stored for 5 days) is listed as “without damage to the cells”, the inactivation of viruses [2] is listed as “can effectively inactivate viruses” and the mutagenicity [3] is listed as “not mutagenic”.

With `Cc1oc2c(C)c3oc(=O)cc(C)c3cc2c1CN` [AMT, 4'-aminomethyl-4,5',8-trimethylpsoralen] the “degradation (photochemical breakdown)” value [4] was “degrades more quickly than 8-MOP”.

In the case of `Cc1oc2c(C)c3oc(=O)cc(C)c3cc2c1CO` [HMT, 4'-hydroxymethyl-4,5',8-trimethylpsoralen], the “enhancement of covalent addition of HMT to 5S rRNA” value [5] is listed as “two fold”.

In the case of `CCCCCCCCCCCCCC(=O)O[C@@H]1[C@@H](C)[C@@]2(O)[C@@H](C=C(CO)C[C@]3(O)C(=O)C(C)=C[C@@H]23)[C@@H]2C(C)(C)[C@]12OC(C)=O` [PMA, Phorbol Myristate Acetate], the “Activation, PMA Activated, Day 3” value ([1]; Control (no irradiation)) is reported as 85%, the “Activation, PMA Activated, Day 5” value ([1]; Control (no irradiation)) is reported as 89% and the “Activation, PMA Activated, Day 3” value ([1]; UV 5') is reported as 87%. The “Activation, PMA Activated, Day 5” value ([1]; UV 5') was 86%, the “Activation, PMA Activated, Day 3” value ([1]; UV 10') was 84% and the “Activation, PMA Activated, Day 5” value ([1]; UV 10') was 79%.
